In brackets after ≈: the same amount, converted by molar mass.
How the values were obtained:
Lichtheimia corymbifera [1] = test: In vitro minimum inhibitory concentration of compound was determined against Absidia corymbifera after 24 hr r; assay type: functional
Lichtheimia corymbifera [2] = test: In vitro minimum inhibitory concentration of compound was determined against Absidia corymbifera after 48 hr; assay type: functional
Aspergillus fumigatus [3] = test: In vitro minimum inhibitory concentration of compound was determined against Aspergillus fumigatus after 24 hr r; assay type: functional
Nakaseomyces glabratus [4] = test: In vitro minimum inhibitory concentration of compound was determined against Candida glabrata after 24 hr r; assay type: functional
Nakaseomyces glabratus [5] = test: In vitro minimum inhibitory concentration of compound was determined against Candida glabrata after 48 hr; assay type: functional
Candida albicans [6] = test: In vitro minimum inhibitory concentration of compound was determined against Candida albicans after 24 hr r; assay type: functional
Candida albicans [7] = test: In vitro minimum inhibitory concentration of compound was determined against Candida albicans after 48 hr; assay type: functional
Candida tropicalis [8] = test: In vitro minimum inhibitory concentration of compound was determined against Candida tropicalis after 24 hr r; assay type: functional
Candida tropicalis [9] = test: In vitro minimum inhibitory concentration of compound was determined against Candida tropicalis after 48 hr; assay type: functional
Pichia kudriavzevii [10] = test: In vitro minimum inhibitory concentration of compound was determined against Candida krusei after 24 hr r; assay type: functional
Pichia kudriavzevii [11] = test: In vitro minimum inhibitory concentration of compound was determined against Candida krusei after 48 hr; assay type: functional
Trichosporon beigelii [12] = test: In vitro minimum inhibitory concentration of compound was determined against Trichosporon beigelii after 48 hr; assay type: functional
Trichophyton benhamiae [13] = test: In vitro minimum inhibitory concentration of compound was determined against Trichophyton mentagrophytes after 120 hr; assay type: functional, Arthroderma benhamiae
Trichophyton benhamiae [14] = test: In vitro minimum inhibitory concentration of compound was determined against Trichophyton mentagrophytes after 72 hr; assay type: functional, Arthroderma benhamiae
Trichosporon beigelii [15] = test: In vitro minimum inhibitory concentration of compound was determined against Trichosporon beigelii after 24 hr r; assay type: functional
Aspergillus fumigatus [16] = test: In vitro minimum inhibitory concentration of compound was determined against Aspergillus fumigatus after 48 hr; assay type: functional

| SMILES | MIC (Lichtheimia corymbifera [1]) | MIC (Lichtheimia corymbifera [2]) | MIC (Aspergillus fumigatus [3]) | MIC (Nakaseomyces glabratus [4]) | MIC (Nakaseomyces glabratus [5]) | MIC (Candida albicans [6]) | MIC (Candida albicans [7]) | MIC (Candida tropicalis [8]) | MIC (Candida tropicalis [9]) | MIC (Pichia kudriavzevii [10]) | MIC (Pichia kudriavzevii [11]) | MIC (Trichosporon beigelii [12]) | MIC (Trichophyton benhamiae [13]) | MIC (Trichophyton benhamiae [14]) | MIC (Trichosporon beigelii [15]) | MIC (Aspergillus fumigatus [16]) |
| --- | --- | --- | --- | --- | --- | --- | --- | --- | --- | --- | --- | --- | --- | --- | --- | --- |
| CC[C@@H]1C=C(c2ccc(C)cc2)C(=O)O1 | 250 µM (≈ 50.6 µg/mL) | 250 µM (≈ 50.6 µg/mL) | 250 µM (≈ 50.6 µg/mL) | 500 µM (≈ 101 µg/mL) | > 500 µM | 250 µM (≈ 50.6 µg/mL) | 500 µM (≈ 101 µg/mL) | 500 µM (≈ 101 µg/mL) | > 500 µM | 500 µM (≈ 101 µg/mL) | > 500 µM | 500 µM (≈ 101 µg/mL) | 250 µM (≈ 50.6 µg/mL) | 125 µM (≈ 25.3 µg/mL) | 250 µM (≈ 50.6 µg/mL) | 500 µM (≈ 101 µg/mL) |
| CC1C=C(c2cccc(F)c2)C(=O)O1 (configuration not stated) | 500 µM (≈ 96.1 µg/mL) | 500 µM (≈ 96.1 µg/mL) | 250 µM (≈ 48 µg/mL) | > 1000 µM | > 1000 µM | 62.5 µM (≈ 12 µg/mL) | 250 µM (≈ 48 µg/mL) | 500 µM (≈ 96.1 µg/mL) | 1000 µM (≈ 192 µg/mL) | 500 µM (≈ 96.1 µg/mL) | 1000 µM (≈ 192 µg/mL) | 500 µM (≈ 96.1 µg/mL) | 125 µM (≈ 24 µg/mL) | 125 µM (≈ 24 µg/mL) | 250 µM (≈ 48 µg/mL) | 500 µM (≈ 96.1 µg/mL) |
| Cc1ccc(C2=CC(C)OC2=O)cc1 (configuration not stated) | 1000 µM (≈ 188 µg/mL) | > 1000 µM | 1000 µM (≈ 188 µg/mL) | > 1000 µM | > 1000 µM | 1000 µM (≈ 188 µg/mL) | > 1000 µM | > 1000 µM | > 1000 µM | > 1000 µM | > 1000 µM | > 1000 µM | 500 µM (≈ 94.1 µg/mL) | 250 µM (≈ 47.1 µg/mL) | > 1000 µM | > 1000 µM |
| CC1C=C(c2ccc(Cl)c(Cl)c2)C(=O)O1 (configuration not stated) | 7.81 µM (≈ 1.9 µg/mL) | 31.2 µM (≈ 7.6 µg/mL) | 7.81 µM (≈ 1.9 µg/mL) | > 500 µM | > 500 µM | 31.2 µM (≈ 7.6 µg/mL) | 500 µM (≈ 122 µg/mL) | > 500 µM | > 500 µM | > 500 µM | > 500 µM | > 500 µM | 62.5 µM (≈ 15.2 µg/mL) | 31.2 µM (≈ 7.6 µg/mL) | 31.2 µM (≈ 7.6 µg/mL) | 62.5 µM (≈ 15.2 µg/mL) |
| CC1C=C(c2cccc(Br)c2)C(=O)O1 (configuration not stated) | 62.5 µM (≈ 15.8 µg/mL) | 125 µM (≈ 31.6 µg/mL) | 62.5 µM (≈ 15.8 µg/mL) | 250 µM (≈ 63.3 µg/mL) | 500 µM (≈ 127 µg/mL) | 31.2 µM (≈ 7.91 µg/mL) | 125 µM (≈ 31.6 µg/mL) | 250 µM (≈ 63.3 µg/mL) | 500 µM (≈ 127 µg/mL) | 250 µM (≈ 63.3 µg/mL) | 500 µM (≈ 127 µg/mL) | 250 µM (≈ 63.3 µg/mL) | 125 µM (≈ 31.6 µg/mL) | 62.5 µM (≈ 15.8 µg/mL) | 62.5 µM (≈ 15.8 µg/mL) | 250 µM (≈ 63.3 µg/mL) |
| CC1C=C(c2ccccc2)C(=O)O1 (configuration not stated) | 1000 µM (≈ 174 µg/mL) | > 1000 µM | 1000 µM (≈ 174 µg/mL) | > 1000 µM | > 1000 µM | 1000 µM (≈ 174 µg/mL) | > 1000 µM | > 1000 µM | > 1000 µM | > 1000 µM | > 1000 µM | > 1000 µM | 1000 µM (≈ 174 µg/mL) | 500 µM (≈ 87.1 µg/mL) | > 1000 µM | > 1000 µM |
| CC1C=C(c2ccc([N+](=O)[O-])cc2)C(=O)O1 (configuration not stated) | 250 µM (≈ 54.8 µg/mL) | 250 µM (≈ 54.8 µg/mL) | 250 µM (≈ 54.8 µg/mL) | 500 µM (≈ 110 µg/mL) | 1000 µM (≈ 219 µg/mL) | 250 µM (≈ 54.8 µg/mL) | 500 µM (≈ 110 µg/mL) | 500 µM (≈ 110 µg/mL) | 500 µM (≈ 110 µg/mL) | 500 µM (≈ 110 µg/mL) | 500 µM (≈ 110 µg/mL) | 1000 µM (≈ 219 µg/mL) | 125 µM (≈ 27.4 µg/mL) | 62.5 µM (≈ 13.7 µg/mL) | 500 µM (≈ 110 µg/mL) | 1000 µM (≈ 219 µg/mL) |
| CC1C=C(c2ccc(Br)cc2)C(=O)O1 (configuration not stated) | 125 µM (≈ 31.6 µg/mL) | 125 µM (≈ 31.6 µg/mL) | 62.5 µM (≈ 15.8 µg/mL) | 500 µM (≈ 127 µg/mL) | 1000 µM (≈ 253 µg/mL) | 7.81 µM (≈ 1.98 µg/mL) | 62.5 µM (≈ 15.8 µg/mL) | 250 µM (≈ 63.3 µg/mL) | 500 µM (≈ 127 µg/mL) | 250 µM (≈ 63.3 µg/mL) | 250 µM (≈ 63.3 µg/mL) | 250 µM (≈ 63.3 µg/mL) | 62.5 µM (≈ 15.8 µg/mL) | 31.2 µM (≈ 7.91 µg/mL) | 125 µM (≈ 31.6 µg/mL) | 250 µM (≈ 63.3 µg/mL) |
| COc1ccc(C2=CC(C)OC2=O)cc1 (configuration not stated) | 1000 µM (≈ 204 µg/mL) | > 1000 µM | 1000 µM (≈ 204 µg/mL) | > 1000 µM | > 1000 µM | 1000 µM (≈ 204 µg/mL) | 1000 µM (≈ 204 µg/mL) | 1000 µM (≈ 204 µg/mL) | > 1000 µM | > 1000 µM | > 1000 µM | > 1000 µM | 250 µM (≈ 51.1 µg/mL) | 125 µM (≈ 25.5 µg/mL) | 1000 µM (≈ 204 µg/mL) | 1000 µM (≈ 204 µg/mL) |
| CC(=O)N1CCN(c2ccc(OC[C@H]3CO[C@](Cn4ccnc4)(c4ccc(Cl)cc4Cl)O3)cc2)CC1 [KETOCONAZOLE] | 31.2 µM (≈ 16.6 µg/mL) | 31.2 µM (≈ 16.6 µg/mL) | 15.6 µM (≈ 8.31 µg/mL) | 0.24 µM (≈ 0.128 µg/mL) | 0.49 µM (≈ 0.26 µg/mL) | 0.12 µM (≈ 0.0638 µg/mL) | 0.12 µM (≈ 0.0638 µg/mL) | 15.6 µM (≈ 8.31 µg/mL) | 15.6 µM (≈ 8.31 µg/mL) | 3.91 µM (≈ 2.08 µg/mL) | 3.91 µM (≈ 2.08 µg/mL) | 0.12 µM (≈ 0.0638 µg/mL) | 1.95 µM (≈ 1.04 µg/mL) | 0.98 µM (≈ 0.521 µg/mL) | 0.12 µM (≈ 0.0638 µg/mL) | 15.6 µM (≈ 8.31 µg/mL) |
| CC1C=C(c2ccc(Cl)cc2)C(=O)O1 (configuration not stated) | 125 µM (≈ 26.1 µg/mL) | 250 µM (≈ 52.2 µg/mL) | 62.5 µM (≈ 13 µg/mL) | 500 µM (≈ 104 µg/mL) | 1000 µM (≈ 209 µg/mL) | 31.2 µM (≈ 6.52 µg/mL) | 125 µM (≈ 26.1 µg/mL) | 250 µM (≈ 52.2 µg/mL) | 500 µM (≈ 104 µg/mL) | 250 µM (≈ 52.2 µg/mL) | 500 µM (≈ 104 µg/mL) | 250 µM (≈ 52.2 µg/mL) | 62.5 µM (≈ 13 µg/mL) | 31.2 µM (≈ 6.52 µg/mL) | 125 µM (≈ 26.1 µg/mL) | 125 µM (≈ 26.1 µg/mL) |
| CC1C=C(c2ccc(F)cc2)C(=O)O1 (configuration not stated) | 62.5 µM (≈ 12 µg/mL) | 62.5 µM (≈ 12 µg/mL) | 125 µM (≈ 24 µg/mL) | 500 µM (≈ 96.1 µg/mL) | 500 µM (≈ 96.1 µg/mL) | 62.5 µM (≈ 12 µg/mL) | 250 µM (≈ 48 µg/mL) | 250 µM (≈ 48 µg/mL) | 500 µM (≈ 96.1 µg/mL) | 500 µM (≈ 96.1 µg/mL) | 500 µM (≈ 96.1 µg/mL) | 250 µM (≈ 48 µg/mL) | 250 µM (≈ 48 µg/mL) | 250 µM (≈ 48 µg/mL) | 125 µM (≈ 24 µg/mL) | 125 µM (≈ 24 µg/mL) |

— ChEMBL document CHEMBL1133284, “3-Phenyl-5-methyl-2H,5H-furan-2-ones: tuning antifungal activity by varying substituents on the phenyl ring” (2000)
